The assay has as its system T. cruzi Tulahuen in NIH-3T3, beta-gal fluorescence, 4 d. The assay is described as follows: T. cruzi intracellular growth inhibition, cell-based (AID 1159559).

Calls of active or inactive are those of the source.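 Rule for the calls: active = compounds whose IC50 against parasite growth in infected mouse cells is below 50000 nM; inactive = the rest.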 Bounds are passed on as bounds.

In the case of `Cc1cc2ncn(-c3ccc([N+](=O)[O-])cc3C#N)c2cc1C`, the IC50 (in general, the concentration at which inhibition is half-maximal) is 1300 nM.
In the case of `c1cc(-c2ncc(-c3ccn[nH]3)s2)ccn1`, the IC50 was 160 nM.
Regarding `Cc1nn(C)c(Cl)c1CN(Cc1cccnc1)Cc1ccsc1`, the IC50 is 160 nM.
For `O=c1cc(NCCCNCc2c[nH]c3ccc(Br)cc23)[nH]c2ccccc12`, the IC50 was > 50000 nM (inactive).
With `COc1ccc(NS(=O)(=O)c2cccc(NC(=O)c3cc(F)cc(F)c3)c2)cc1`, the half-inhibitory concentration (IC50) was 790 nM.
For `COCCn1c(-c2ccccc2)cnc1NCc1ccccc1OC`, the IC50 was 13000 nM.
Consider `O=C1NCCn2ccc(Nc3nc(NC4CCC(O)CC4)ncc3Cl)c21` (configuration not stated), for which the IC50 was 6300 nM.
The same measure for `Clc1ccc(C(CC2CCCCO2)Cn2cncn2)c(Cl)c1` (configuration not stated): 400 nM.
To `COc1ccc(C2CC(c3ccc(NS(C)(=O)=O)cc3)=NN2C(=O)c2cccs2)cc1OC` (configuration not stated) belongs 25000 nM; to `O=C(CC1(O)C(=O)N(Cc2ccccc2)c2ccc(Br)cc21)c1cccnc1` (configuration not stated), 5000 nM.
Take `Cc1cc(Br)sc1CNCCCNc1cc(=O)c2ccccc2[nH]1`: the IC50 is 1600 nM.
For `Cc1cc(Nc2cc(C3CC3)[nH]n2)nc(N2CCC[C@H]2C(N)=O)n1`, the IC50 is 130 nM.
The same measure for `COc1ccc(S(=O)(=O)Nc2ccc(CN3CCN(C(=O)c4cccc(C#N)c4)CC3)cc2)cc1`: 1000 nM.
The same measure for `O=C(Cn1cnc([N+](=O)[O-])n1)Nc1ccc(Cl)cc1C(=O)c1ccccc1`: 250 nM; for `COc1ccccc1-n1c(SCC(=O)Nc2ccc3c(c2)OCO3)nc2c(c1=O)SCC2`: 40000 nM.
On to `O=C1c2cnc(N3CCCC3)nc2CN1c1ccc2c(c1)OCO2`, for which the IC50 is 2500 nM.
`CC(c1ccc2c(c1)CCCC2)N(C)c1ncc2c(N)nc(N)nc2n1` (configuration not stated): the IC50 was 32 nM.
For `Cc1ccc(NC(C)C(=O)Nc2ccc(C#N)cc2)cc1S(=O)(=O)N1CCCCC1` (configuration not stated), the IC50 is 10000 nM.
Consider `Fc1ccc(Nc2nc(-c3ccccn3)cs2)cc1`, for which the IC50 is 2500 nM.
The same measure for `O=C(Nc1nccs1)c1ccccc1Cn1cc([N+](=O)[O-])cn1`: > 50000 nM (inactive); for `O=C(NCc1ccncc1)c1ccccc1N1CCCN(C(=O)Cc2ccc(F)c(F)c2)CC1`: 130 nM; for `COc1ccc(C(C)N(C)c2ncc3c(N)nc(N)nc3n2)cc1F` (configuration not stated): 79 nM.
Consider `CCCc1cc(C(=O)Nc2ncc(-c3cccc(Br)c3)n2C)n[nH]1`, for which the IC50 was 2500 nM.
Turning to `CCN(CC)S(=O)(=O)c1ccc(C(=O)Nc2cc(C)nn2-c2nc(C)c(C)c(=O)[nH]2)cc1`, the IC50 is 630 nM.
With `Cn1cc(CN2CCN(c3ccc4c(c3)CCN(C(=O)[C@H]3C[C@@H]3c3ccccc3)CC4)CC2)cn1`, the half-inhibitory concentration (IC50) was 1600 nM.
Turning to `CCCCn1c(=O)c2c(N)onc2n(CCCC)c1=O`, the IC50 is 25000 nM.
Turning to `O=C(c1cnn(-c2ccccc2)n1)N1CCCC(n2ccnc2)C1` (configuration not stated), the IC50 was 50 nM.
In the case of `Cn1nc(-c2ccc(NC(=O)Cc3ccccc3Cl)cc2)c2c(N)ncnc21`, the concentration for half-maximal inhibition (IC50) is 2000 nM.
Take `CN(Cc1ccc(C(N)=O)cc1)C(c1ccc(F)cc1)c1cccnc1` (configuration not stated): the IC50 is 160 nM.
Regarding `CC(c1ccccn1)N(C)Cc1nc2ccccc2n1C(C)C` (configuration not stated), the IC50 is 1600 nM.
The same measure for `O=C(c1cccc(Nc2ncc(-c3ccc4c(c3)OCO4)cn2)c1)N1CCSC1`: 2500 nM; for `Cc1cc(Nc2cc(C3CC3)[nH]n2)nc(N2CCCC2)n1`: 79 nM.
Take `Cc1cc(C)n(-c2nc(NC(C)C)nc(NC(C)(C)C)n2)n1`: the IC50 is 2000 nM.
Take `COc1ccc(CN2CCCCC2c2nc(-c3cccnc3)no2)cc1` (configuration not stated): the IC50 is 790 nM.
For the compound `CC(C)(C)C(O)(CCc1ccc(Cl)cc1)Cn1cncn1` (configuration not stated), the 50% inhibitory concentration (IC50) was 130 nM.
To `COc1ccc(C(C)(C)C)cc1S(=O)(=O)n1ccnc1` belongs 130 nM; to `Cn1nc([N+](=O)[O-])nc1Oc1ccc(C(=O)c2ccccc2)cc1`, 250 nM; to `CC(C)(C)CC(=O)NCCc1csc(-c2ccc(F)cc2)n1`, 1300 nM.
Consider `CC1CN(Cc2ccc(C#N)cc2)CCN1c1ccc(NC(=O)c2ccccc2F)cc1` (configuration not stated), for which the IC50 is 25000 nM.
Take `O=C(NCCc1cccnc1)c1csc(-c2ccccc2)n1`: the IC50 was 250 nM.
In the case of `Cc1nccn1C1CCCN(C(=O)c2cc3c(F)cccc3s2)C1` (configuration not stated), the IC50 is 630 nM.
For `CC(C)CC(=O)NC(c1cccs1)c1ccc2cccnc2c1O` (configuration not stated), the IC50 was 1600 nM.
As for `O=C(NCC1CCCCN1C(=O)c1cccc2ccccc12)c1ccccc1` (configuration not stated), the IC50 was 6300 nM.
On to `O=C(C1CCCCC1)N1CCN(c2nnc(-c3ccccc3)c3ccccc23)CC1`, for which the IC50 is 1000 nM.
Consider `COc1cccc(Nc2cc(C)nc(-c3ccccn3)n2)c1`, for which the concentration for half-maximal inhibition (IC50) was 3200 nM.
In the case of `Cc1nc(-c2ccncc2)ncc1C(C)NC(=O)c1ccc(Cl)s1` (configuration not stated), the half-maximal inhibitory concentration (IC50) is 25000 nM.
Regarding `CN(Cc1nc2c(C(=O)N3CCN(Cc4ccccc4)CC3)cccc2[nH]1)C1CCCc2cccnc21` (configuration not stated), the IC50 was 790 nM.
For the compound `Cc1ccc(Nc2nc(C3CCCN3Cc3ccn[nH]3)cs2)nc1` (configuration not stated), the IC50 was 790 nM.
To `O=C(NCC1CCCCC1)c1cc(=O)c2ccccc2o1` belongs 400 nM.
Turning to `OCC1CCCCN1c1cc(-c2ccccn2)nc(Nc2ccccc2)n1` (configuration not stated), the IC50 was 790 nM.
Take `N#Cc1cnc(Nc2cccc(CCN3CCOCC3)c2)nc1Nc1ccccc1C(N)=O`: the IC50 is 1300 nM.
As to `O=C(CCc1ccc(-c2ccccc2)o1)N1CCN(c2ccc(O)cc2)CC1`, the IC50 is 3200 nM.
As to `COc1ccc(C(=O)Nc2ccc(NC(=O)CO)cc2)cc1`, the IC50 was > 50000 nM (inactive).
For `c1ccc2c(CCOc3nccnc3-c3ccncc3)c[nH]c2c1`, the half-maximal inhibitory concentration (IC50) was 130 nM.
As for `COc1ccc(Nc2nccc(N(C)c3n[nH]c4c(F)cccc34)n2)cc1S(C)(=O)=O`, the IC50 was 2000 nM.
As for `COc1ccc(-c2ccc3nnc(-c4ccc(O)c(OC)c4)n3c2)cn1`, the IC50 was 1300 nM.
For `Nc1nc(-c2ccccn2)nc(-n2nc(-c3ccccc3)cc2N)n1`, the IC50 was 500 nM.
Regarding `N#Cc1ccc(S(=O)(=O)N2CCC3(CCN(c4ccccc4)C3=O)CC2)cc1`, the IC50 was 1300 nM.
To `O=c1[nH]cnc2c([C@@H]3O[C@H](CO)[C@@H](O)[C@H]3O)[nH]nc12` belongs 130 nM.
Regarding `O=C(Nc1nc(-c2ccccn2)cs1)N1C[C@H]2C[C@@]2(c2ccccc2)C1`, the IC50 is 500 nM.
On to `COc1ccnc2[nH]cc(-c3cc(C(=O)N[C@H](CO)c4ccccc4)co3)c12`, for which the IC50 is 1300 nM.
Take `COc1ccc(C(=O)Nc2c(C)nn(COc3cccc(C(F)(F)F)c3)c2C)cc1`: the IC50 was 25000 nM.
With `Cc1ccc(C)c(OC2CCN(C(=O)C(C)n3ccnc3)CC2)c1` (configuration not stated), the IC50 is 160 nM.
The same measure for `O=C(c1cccc(Nc2ncc(-c3ccc4c(c3)OCO4)cn2)c1)N1CCOCC1`: 6300 nM.
The same measure for `O=C(Nc1ccc(C(F)(F)F)cc1)Nc1cccc([N+](=O)[O-])c1`: 1000 nM; for `CCOc1ccc(NC(=O)C=Cc2ccc(CC)o2)cc1`: 2000 nM.
Take `O=C(NCc1ccc(-n2cccc2)cc1)c1nc(Cn2ccc([N+](=O)[O-])n2)no1`: the IC50 was 2500 nM.
To `CN(C)c1ccc(-c2cc3nccnc3c(OC[C@H]3CCCNC3)n2)cn1` belongs 1600 nM; to `CCOc1ccc(CC(=O)N2c3ccccc3CC2C(=O)NC)cc1` (configuration not stated), > 50000 nM (inactive); to `Cc1ccc2nc(N(Cc3cccnc3)C(=O)CCc3ccccc3)sc2c1`, 40 nM.
On to `Cc1ccc(NC(=O)C(C)n2nc([N+](=O)[O-])c(Br)c2C)cc1Cl` (configuration not stated), for which the IC50 was 2500 nM.
`Cc1nn(-c2nc(N)nc(-c3ccccn3)n2)c(C)c1Cc1ccccc1`: the IC50 was 2500 nM.
For `O=C(CN1CCN(c2ccccn2)CC1)Nc1cc(S(=O)(=O)N2CCCCCC2)ccc1Cl`, the IC50 is 10000 nM.
The same measure for `Cc1nn(-c2nc3ccccc3s2)c2c1C(c1ccc(OCC(N)=O)cc1)SCC(=O)N2` (configuration not stated): 5000 nM.
Regarding `CCC(=O)Nc1ccc(C(=O)Nc2ccccc2-c2ccccc2)cc1`, the IC50 was 500 nM.
Consider `NC(=O)c1cc(NC(=O)c2ccccc2COc2ccccc2)ccc1Cl`, for which the IC50 was 40000 nM.
Consider `CCC(CC)C(=O)Nc1ccc(-c2nnc(-c3ccc(OC)cc3)o2)cc1`, for which the IC50 was 5000 nM.
As to `O=C(NC(CO)c1ccc(F)cc1)c1ccc(-c2c[nH]c3ncccc23)s1` (configuration not stated), the IC50 is 10000 nM.
For `COc1ccccc1C(=O)Nc1nnc(-c2ccc3c(c2)OCO3)s1`, the IC50 is 2500 nM.
For `O=[N+]([O-])c1cccc(Nc2cncc(-c3ccccc3CO)c2)c1`, the IC50 is 320 nM.
For `CCC(c1ccc(F)cc1)n1cncc1-c1cnn(C)c1` (configuration not stated), the IC50 is 200 nM.
Consider `COc1ccc(C(=O)Nc2cc(C(F)(F)F)ccc2N2CCOCC2)c(OC)c1`, for which the IC50 was 1000 nM.
Consider `Nc1ncnc2c1ncn2[C@@H]1O[C@H](CO)C[C@H]1O`, for which the IC50 was 1000 nM.
For `O=C(NCCCn1cnc2ccccc21)c1ccc(NC(=O)c2ccco2)cc1`, the 50% inhibitory concentration (IC50) is 4000 nM.
The same measure for `COc1ccc2ncc(=O)n(CCN3CC[C@H](NCc4ncc(Cl)c5[nH]ncc45)[C@H](O)C3)c2n1`: 4000 nM; for `CNc1cncc(C2CCCN2C(=O)Cc2coc3cc(C)ccc23)n1` (configuration not stated): 160 nM; for `COc1ccc(C2=NCC(CSc3nnc(-c4ccc5c(c4)OCO5)o3)S2)cc1` (configuration not stated): 2500 nM.
As to `C[C@@H](Oc1cc(-n2cnc3cc(N)ccc32)sc1C(N)=O)c1ccccc1Cl`, the IC50 was 1300 nM.
The same measure for `Cc1ccc(-c2csc(NC(=O)C=Cc3ccc(S(=O)(=O)N4CCOCC4)cc3)n2)o1`: 7900 nM; for `Cc1cc(C)c(C#N)c(SCC(=O)c2ccc3c(c2)OCO3)n1`: 2000 nM; for `O=S(=O)(c1ccccc1C(F)(F)F)N1CCN(Cc2ccc(-n3ccnc3)cc2)CC1`: 250 nM.
As for `CCCCNc1nccc(-c2c(-c3ccc(F)cc3)nn3c(N4CCOCC4)cccc23)n1`, the IC50 was 400 nM.
The same measure for `Cc1ccc(NC(=O)c2ccnc(N3CCCC3)c2)cc1-c1ccsc1C(N)=O`: 13000 nM; for `CC(=O)NC1(c2ccccc2)CCN(CC(=O)Nc2ccccc2-c2ccccc2)CC1`: 1300 nM; for `COc1cccc(-c2cc(C(F)(F)F)nc(-n3ccc([N+](=O)[O-])n3)n2)c1`: 400 nM.
Consider `CCN(CC)c1nc(N(C)C)nc2c1CN(Cc1ccccc1)CC2`, for which the IC50 is 6300 nM.
In the case of `CCCNC(=O)Nc1cccc(-c2nc3ncccc3o2)c1`, the concentration for half-maximal inhibition (IC50) is 2500 nM.

Source of the values: PubChem BioAssay AID1159559 (GlaxoSmithKline (GSK), 2015).
